Laboratory results taken from US10952945B2, “Formulations containing an extract of Echinacea and linoleic acid derivatives” (DR. AUGUST WOLFF GMBH & CO. KG ARZNEIMITTEL, priority 2015, dated 2021).

Biological target: TRPV1 (Homo sapiens, UniProt Q8NER1)
Test: Determination of TRPV1 agonistic activity (MTT cell viability of 293 T-VR1 cells)
Procedure: 2×10^4 293 T-VR1 cells (or parentale 293T cells as control) are cultivated in 96-well microtiter plates (Costar, Cambridge, Mass.) in 200 μL Dulbecco's Modified Eagle's Medium (DMEM), which also contains 10% foetal calf serum and 1% antibiotics (penicillin/streptomycin). The cells are incubated for 6 h with the test substances or the controls (capsaicin, TRPV1 agonist (1 μM); capsazepine, TRPV1 antagonist (10 μM); or capsaicin (1 μM) and capsazepine (10 μM)). Then, cell viability is determined.
The cytotoxic effect of the test substances was determined using the MTT (3-[4,5-dimethylthiazol-2-yl]-2,5-diphenyltetrazolium bromide) assay method. For this, 50 μL of a solution of MTT in DMEM (5 mg/mL) were added to each well. These were then incubated in the dark for 4 h at 37° C. The reaction was stopped, the residue was removed and 100 μL DMSO were added to each well. Incubation continued for 10 min with gentle shaking. Then the absorption at 550 nm was measured with a TECAN GENios Pro Plate Reader (Tecan Group Ltd., Switzerland). […] The determination was performed in triplicate.

Sequence of TRPV1 (Q8NER1 whole entry, species assumed): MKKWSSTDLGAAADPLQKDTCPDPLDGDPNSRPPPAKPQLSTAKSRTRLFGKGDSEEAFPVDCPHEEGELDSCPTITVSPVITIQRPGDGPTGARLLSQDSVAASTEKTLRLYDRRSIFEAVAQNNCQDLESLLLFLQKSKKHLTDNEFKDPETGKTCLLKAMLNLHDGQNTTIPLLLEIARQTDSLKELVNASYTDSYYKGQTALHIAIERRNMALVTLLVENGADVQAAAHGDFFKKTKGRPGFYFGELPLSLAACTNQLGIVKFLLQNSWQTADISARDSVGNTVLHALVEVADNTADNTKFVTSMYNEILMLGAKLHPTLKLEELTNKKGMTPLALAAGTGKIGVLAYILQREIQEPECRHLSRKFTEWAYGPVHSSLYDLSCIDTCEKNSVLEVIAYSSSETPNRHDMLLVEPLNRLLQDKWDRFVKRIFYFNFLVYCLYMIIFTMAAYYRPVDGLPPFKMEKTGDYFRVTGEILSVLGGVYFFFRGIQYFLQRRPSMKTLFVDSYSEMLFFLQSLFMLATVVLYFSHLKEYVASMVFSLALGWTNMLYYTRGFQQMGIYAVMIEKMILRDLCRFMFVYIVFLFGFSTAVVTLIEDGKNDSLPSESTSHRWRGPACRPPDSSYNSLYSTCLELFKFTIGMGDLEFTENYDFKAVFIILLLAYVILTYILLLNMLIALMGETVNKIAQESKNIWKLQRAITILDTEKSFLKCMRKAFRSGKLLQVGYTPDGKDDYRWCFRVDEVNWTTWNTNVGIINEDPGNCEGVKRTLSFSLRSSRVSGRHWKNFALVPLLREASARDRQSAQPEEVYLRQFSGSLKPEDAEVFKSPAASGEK

Compound | cell viability (FIG. 1 experiment, capsaicin 1 μM, 293 T-VR1 cells, 6 h, percentage of vehicle control) [%] | cell viability (FIG. 2 experiment, capsaicin positive control) [%] | cell viability (FIG. 1 experiment, capsaicin (1 μM) and capsazepine (10 μM) together) [%] | cell viability (FIG. 2 experiment, capsaicin together with capsazepine) [%] | cell viability (human, 6 h, 10 μM) [%]
COc1cc(CNC(=O)CCCC/C=C/C(C)C)ccc1O [capsaicin] | 54.9 | 70.6 |  |  | 
Oc1cc2c(cc1O)CN(C(=S)NCCc1ccc(Cl)cc1)CCC2 [capsazepine] |  |  | 101.3 | 104.4 | 106.1
